Literature values as cited in paper PMC12383022, “Discovery of a Novel Antimicrobial Peptide from Paenibacillus sp. Na14 with Potent Activity Against Gram-Negative Bacteria and Genomic Insights into Its Biosynthetic Pathway” (Antibiotics, 2025).

What was measured:
MRSA ATCC 15975 = conditions: cited from earlier work
MRSA = conditions: 10× MIC; cited from earlier work
K. pneumoniae LMG20218 = conditions: cited from earlier work
E. coli ATCC 25922 = conditions: cited from earlier work
P. aeruginosa LMG6395 = conditions: cited from earlier work

brevibacillin 2V
MIC, MRSA ATCC 15975 (MRSA ATCC 15975): 2 µg/mL
time to complete killing of MRSA (MRSA): ≤ 6 h
MIC, K. pneumoniae LMG20218 (K. pneumoniae LMG20218): 32 µg/mL
MIC, E. coli ATCC 25922 (E. coli ATCC 25922): 16 µg/mL
MIC, P. aeruginosa LMG6395 (P. aeruginosa LMG6395): 64 µg/mL
